Values after ≈ are worked out from the molar mass of the structure shown.
What was measured:
Assay in all cases: MIC panel of challenge pathogens (CLSI)
Assay type in all cases: cell-based
[1] = test system: Staphylococcus aureus EUP SAU040; conditions: Staphylococcus aureus
Summary of the method: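 CLSI broth microdilution; inoculum 2-8×10^5 CFU/ml; 2-fold series, top 128 mg/L; 30-37° C, 24-48 h, dark; visual read, 100% inhibition endpoint.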

[2] = test system: Staphylococcus epidermidis NRS7; conditions: Staphylococcus epidermidis
Summary of the method: (§1)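 Broth microdilution per CLSI guidelines. Final inoculum 2-8×10^5 CFU/ml, compounds serially two-fold diluted from 128 mg/L top concentration. Incubated in the dark at 30-37° C for 24-48 h, aerobic or anaerobic as appropriate. MIC read visually as 100% inhibition endpoint; MIC50 and MIC80 also reported.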

[3] = test system: Enterococcus faecalis ATCC51299; conditions: Enterococcus faecalis
Summary of the method: as §1

[4] = test system: Staphylococcus aureus AUR131 007035; conditions: Staphylococcus aureus
Summary of the method: as §1

[5] = test system: Staphylococcus aureus NRS1 (ATCC700699); conditions: Staphylococcus aureus
Summary of the method: as §1

[6] = test system: Staphylococcus aureus NRS382; conditions: Staphylococcus aureus
Summary of the method: as §1

[7] = test system: Staphylococcus aureus AUR59 7005; conditions: Staphylococcus aureus
Summary of the method: as §1

[8] = test system: Staphylococcus aureus EUP MRSA004; conditions: Staphylococcus aureus
Summary of the method: as §1

Bacillus cereus NCTC6349 = conditions: Bacillus cereus
Summary of the method: as §1

[9] = test system: Staphylococcus aureus ATCC43300; conditions: Staphylococcus aureus
Summary of the method: as §1

[10] = test system: Enterococcus faecium ATCC700221; conditions: Enterococcus faecium
Summary of the method: as §1

[11] = test system: Staphylococcus aureus NRS2 (ATCC700698); conditions: Staphylococcus aureus
Summary of the method: as §1

[12] = test system: Staphylococcus aureus AUR60 7005; conditions: Staphylococcus aureus
Summary of the method: as §1

[13] = test system: Staphylococcus aureus AUR58 7005; conditions: Staphylococcus aureus
Summary of the method: as §1

[14] = test system: Staphylococcus aureus EUP MRSA002; conditions: Staphylococcus aureus
Summary of the method: as §1

[15] = test system: Enterococcus faecalis ATCC29212; conditions: Enterococcus faecalis
Summary of the method: as §1

[16] = test system: Staphylococcus aureus NRS383; conditions: Staphylococcus aureus
Summary of the method: as §1

[17] = test system: Staphylococcus epidermidis NRS122; conditions: Staphylococcus epidermidis
Summary of the method: as §1

[18] = test system: Staphylococcus aureus NRS384; conditions: Staphylococcus aureus
Summary of the method: as §1

**Q.** For `CN[C@H](CC(C)C)C(=O)N[C@H]1C(=O)N[C@@H](CC(N)=O)C(=O)N[C@H]2C(=O)N[C@H]3C(=O)N[C@H](C(=O)N[C@H](C(=O)O)c4cc(O)cc(O)c4-c4cc3ccc4O)[C@H](O)c3ccc(c(Cl)c3)Oc3cc2cc(c3O[C@@H]2O[C@H](CO)[C@@H](O)[C@H](O)[C@H]2O[C@H]2C[C@](C)(N)[C@H](O)[C@H](C)O2)Oc2ccc(cc2Cl)[C@H]1O` [Vancomycin, reference compound], which MIC ([1]; EUPSAU040, read-out: 100% inhibition) is on record?
**A.** 1 µg/mL (≈ 0.69 µM)

**Q.** What about the MIC50 ([1]; EUPSAU040, read-out: MIC50 (50%)) of the same compound?
**A.** 1 µg/mL (≈ 0.69 µM)

**Q.** What about the MIC80 ([1]; EUPSAU040, read-out: MIC80 (80%)) of the same compound?
**A.** 1 µg/mL (≈ 0.69 µM)

**Q.** And the MIC ([2]; NRS7, read-out: 100% inhibition)?
**A.** 4 µg/mL (≈ 2.76 µM)

**Q.** And the MIC50 ([2]; NRS7, read-out: MIC50 (50%))?
**A.** 2 µg/mL (≈ 1.38 µM)

**Q.** And the MIC80 ([2]; NRS7, read-out: MIC80 (80%))?
**A.** 4 µg/mL (≈ 2.76 µM)

**Q.** What about the MIC ([3]; ATCC51299, read-out: 100% inhibition) of the same compound?
**A.** > 16 µg/mL

**Q.** And the MIC50 ([3]; ATCC51299, read-out: MIC50 (50%))?
**A.** > 16 µg/mL

**Q.** What about the MIC80 ([3]; ATCC51299, read-out: MIC80 (80%)) of the same compound?
**A.** > 16 µg/mL

**Q.** And the MIC ([4]; AUR131007035, read-out: 100% inhibition)?
**A.** 0.5 µg/mL (≈ 0.345 µM)

**Q.** What about the MIC50 ([4]; AUR131007035, read-out: MIC50 (50%)) of the same compound?
**A.** 0.5 µg/mL (≈ 0.345 µM)

**Q.** What about the MIC80 ([4]; AUR131007035, read-out: MIC80 (80%)) of the same compound?
**A.** 0.5 µg/mL (≈ 0.345 µM)

**Q.** What about the MIC ([5]; read-out: 100% inhibition) of the same compound?
**A.** 4 µg/mL (≈ 2.76 µM)

**Q.** And the MIC50 ([5]; read-out: MIC50 (50%))?
**A.** 2 µg/mL (≈ 1.38 µM)

**Q.** What about the MIC80 ([5]; read-out: MIC80 (80%)) of the same compound?
**A.** 4 µg/mL (≈ 2.76 µM)

**Q.** And the MIC ([6]; NRS382, read-out: 100% inhibition)?
**A.** 1 µg/mL (≈ 0.69 µM)

**Q.** And the MIC50 ([6]; NRS382, read-out: MIC50 (50%))?
**A.** 1 µg/mL (≈ 0.69 µM)

**Q.** And the MIC80 ([6]; NRS382, read-out: MIC80 (80%))?
**A.** 1 µg/mL (≈ 0.69 µM)

**Q.** What about the MIC ([7]; AUR597005, read-out: 100% inhibition) of the same compound?
**A.** 1 µg/mL (≈ 0.69 µM)

**Q.** And the MIC50 ([7]; AUR597005, read-out: MIC50 (50%))?
**A.** 0.5 µg/mL (≈ 0.345 µM)

**Q.** And the MIC80 ([7]; AUR597005, read-out: MIC80 (80%))?
**A.** 0.5 µg/mL (≈ 0.345 µM)

**Q.** What about the MIC ([8]; EUPMRSA004, read-out: 100% inhibition) of the same compound?
**A.** 0.5 µg/mL (≈ 0.345 µM)

**Q.** What about the MIC50 ([8]; EUPMRSA004, read-out: MIC50 (50%)) of the same compound?
**A.** 0.5 µg/mL (≈ 0.345 µM)

**Q.** And the MIC80 ([8]; EUPMRSA004, read-out: MIC80 (80%))?
**A.** 0.5 µg/mL (≈ 0.345 µM)

**Q.** And the MIC (Bacillus cereus NCTC6349; NCTC6349, read-out: 100% inhibition)?
**A.** 2 µg/mL (≈ 1.38 µM)

**Q.** And the MIC50 (Bacillus cereus NCTC6349; NCTC6349, read-out: MIC50 (50%))?
**A.** 1 µg/mL (≈ 0.69 µM)

**Q.** And the MIC80 (Bacillus cereus NCTC6349; NCTC6349, read-out: MIC80 (80%))?
**A.** 2 µg/mL (≈ 1.38 µM)

**Q.** What about the MIC ([9]; ATCC43300, read-out: 100% inhibition) of the same compound?
**A.** 0.5 µg/mL (≈ 0.345 µM)

**Q.** And the MIC50 ([9]; ATCC43300, read-out: MIC50 (50%))?
**A.** 0.5 µg/mL (≈ 0.345 µM)

**Q.** What about the MIC80 ([9]; ATCC43300, read-out: MIC80 (80%)) of the same compound?
**A.** 0.5 µg/mL (≈ 0.345 µM)

**Q.** What about the MIC ([10]; ATCC700221, read-out: 100% inhibition) of the same compound?
**A.** > 16 µg/mL

**Q.** And the MIC50 ([10]; ATCC700221, read-out: MIC50 (50%))?
**A.** > 16 µg/mL

**Q.** What about the MIC80 ([10]; ATCC700221, read-out: MIC80 (80%)) of the same compound?
**A.** > 16 µg/mL

**Q.** And the MIC ([11]; read-out: 100% inhibition)?
**A.** 1 µg/mL (≈ 0.69 µM)

**Q.** And the MIC50 ([11]; read-out: MIC50 (50%))?
**A.** 0.5 µg/mL (≈ 0.345 µM)

**Q.** And the MIC80 ([11]; read-out: MIC80 (80%))?
**A.** 1 µg/mL (≈ 0.69 µM)

**Q.** And the MIC ([12]; AUR607005, read-out: 100% inhibition)?
**A.** 1 µg/mL (≈ 0.69 µM)

**Q.** What about the MIC50 ([12]; AUR607005, read-out: MIC50 (50%)) of the same compound?
**A.** 0.5 µg/mL (≈ 0.345 µM)

**Q.** And the MIC80 ([12]; AUR607005, read-out: MIC80 (80%))?
**A.** 1 µg/mL (≈ 0.69 µM)

**Q.** And the MIC ([13]; AUR587005, read-out: 100% inhibition)?
**A.** 1 µg/mL (≈ 0.69 µM)

**Q.** And the MIC50 ([13]; AUR587005, read-out: MIC50 (50%))?
**A.** 1 µg/mL (≈ 0.69 µM)

**Q.** And the MIC80 ([13]; AUR587005, read-out: MIC80 (80%))?
**A.** 1 µg/mL (≈ 0.69 µM)

**Q.** And the MIC ([14]; EUPMRSA002, read-out: 100% inhibition)?
**A.** 0.5 µg/mL (≈ 0.345 µM)

**Q.** What about the MIC50 ([14]; EUPMRSA002, read-out: MIC50 (50%)) of the same compound?
**A.** 0.5 µg/mL (≈ 0.345 µM)

**Q.** And the MIC80 ([14]; EUPMRSA002, read-out: MIC80 (80%))?
**A.** 0.5 µg/mL (≈ 0.345 µM)

**Q.** What about the MIC ([15]; ATCC29212, read-out: 100% inhibition) of the same compound?
**A.** 4 µg/mL (≈ 2.76 µM)

**Q.** What about the MIC50 ([15]; ATCC29212, read-out: MIC50 (50%)) of the same compound?
**A.** 4 µg/mL (≈ 2.76 µM)

**Q.** And the MIC80 ([15]; ATCC29212, read-out: MIC80 (80%))?
**A.** 4 µg/mL (≈ 2.76 µM)

**Q.** What about the MIC ([16]; NRS383, read-out: 100% inhibition) of the same compound?
**A.** 0.5 µg/mL (≈ 0.345 µM)

**Q.** And the MIC50 ([16]; NRS383, read-out: MIC50 (50%))?
**A.** 0.5 µg/mL (≈ 0.345 µM)

**Q.** And the MIC80 ([16]; NRS383, read-out: MIC80 (80%))?
**A.** 0.5 µg/mL (≈ 0.345 µM)

**Q.** And the MIC ([17]; NRS122, read-out: 100% inhibition)?
**A.** 2 µg/mL (≈ 1.38 µM)

**Q.** What about the MIC50 ([17]; NRS122, read-out: MIC50 (50%)) of the same compound?
**A.** 1 µg/mL (≈ 0.69 µM)

**Q.** What about the MIC80 ([17]; NRS122, read-out: MIC80 (80%)) of the same compound?
**A.** 1 µg/mL (≈ 0.69 µM)

**Q.** And the MIC ([18]; NRS384, read-out: 100% inhibition)?
**A.** 1 µg/mL (≈ 0.69 µM)

**Q.** What about the MIC50 ([18]; NRS384, read-out: MIC50 (50%)) of the same compound?
**A.** 1 µg/mL (≈ 0.69 µM)

**Q.** What about the MIC80 ([18]; NRS384, read-out: MIC80 (80%)) of the same compound?
**A.** 1 µg/mL (≈ 0.69 µM)

Reference: patent US9012655B2, “Antimicrobial/adjuvant compounds and methods” (Denouamed, Inc., priority 2011, dated 2015)
